This passage reports MLD and inhibition results from EP0590919A1, “Therapeutic agents for parkinson's disease” (KYOWA HAKKO KOGYO CO., LTD., priority 1992, dated 1994).

One series concerns dd-strain male mice. Nature of the series: Acute toxicity test (minimum lethal dose, oral). Particulars: oral administration, three mice per group, mortality seven days after administration. In kind it is in vivo. On the procedure:
Test compounds were orally administered to groups of dd-strain male mice weighing 20 ± 1 g, each group consisting of three mice. Seven days after the administration, minimum lethal dose (MLD) of each compound was determined by observing the mortality.

A further series deals with T1, A₂ receptor (Rattus norvegicus, UniProt P30543).
T1 construct: from tissue; host or cells: rat corpus striatum membrane preparation
T1 sequence (P30543 whole entry): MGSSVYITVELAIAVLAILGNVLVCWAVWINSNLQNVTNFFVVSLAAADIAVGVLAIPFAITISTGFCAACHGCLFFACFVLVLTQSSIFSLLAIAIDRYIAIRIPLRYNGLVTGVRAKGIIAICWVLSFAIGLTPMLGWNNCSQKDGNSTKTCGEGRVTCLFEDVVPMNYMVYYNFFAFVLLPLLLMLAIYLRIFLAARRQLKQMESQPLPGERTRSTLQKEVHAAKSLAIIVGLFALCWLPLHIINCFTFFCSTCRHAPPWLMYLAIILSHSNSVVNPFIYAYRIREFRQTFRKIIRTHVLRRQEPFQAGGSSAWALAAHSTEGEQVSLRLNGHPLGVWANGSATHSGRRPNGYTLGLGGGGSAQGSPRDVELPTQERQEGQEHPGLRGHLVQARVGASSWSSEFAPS
Nature of the series: Adenosine A₂ receptor binding test (³H-NECA binding). The conditions noted are these: ³H-NECA binding, rat corpus striatum, read-out: Inhibition (%) A₂ Receptor; for inhibition at 100 µM: 10⁻⁴M; for inhibition at 10 µM: 10⁻⁵M; for inhibition at 1 µM: 10⁻⁶M; for inhibition at 0.1 µM: 10⁻⁷M. On the procedure: The similar procedure as in the above-described adenosine A₁ receptor binding test was repeated using rat corpus striatum to obtain the final precipitate of the tissue thereof. The precipitate was suspended in 50 mM Tris HCl buffer containing 10 mM magnesium chloride and 0.02 unit/mg tissue of adenosine deaminase (manufactured by Sigma Co.) to give a tissue concentration of 5 mg (wet weight)/ml.
The mixture solution was allowed to stand at 25°C for 120 minutes and then treated in the same manner as in the adenosine A₁ receptor binding test to determine the radioactivity bound to the A₂ receptors.
The inhibition rate of the test compound against the binding of A₂ receptor (³H-NECA binding) was calculated by the following equation: [formula] [Notes] • 1.

As to `CCn1c(=O)c2[nH]c(/C=C/c3cccc(OC)c3OC)nc2n(CC)c1=O` [Compound 3, (E)-8-(2,3-Dimethoxystyryl)-1,3-diethylxanthine], in the series on dd-strain male mice, the MLD is on record as greater than 300 mg/kg.

For the compound `CCn1c(=O)c2[nH]c(/C=C/c3ccc(OC)cc3OC)nc2n(CC)c1=O` [Compound 5, (E)-8-(2,4-Dimethoxystyryl)-1,3-diethylxanthine], in the series with dd-strain male mice, the MLD was greater than 100 mg/kg.

As to `CCn1c(=O)c2[nH]c(/C=C/c3cc(C)c(OC)cc3C)nc2n(CC)c1=O` [Compound 11, (E)-1,3-Diethyl-8-(4-methoxy-2,5-dimethylstyryl)xanthine], the MLD in the series on dd-strain male mice is listed as greater than 300 mg/kg.

A word on the inhibition: it is the drop in the measured response relative to a control, in per cent. In turn, `COc1cccc(/C=C/c2nc3c(=O)n(C)c(=O)n(C)c3[nH]2)c1OC` [Compound 25, (E)-8-(2,3-Dimethoxystyryl)theophylline] yielded an MLD with dd-strain male mice greater than 100 mg/kg. At A₂ receptor, the inhibition at 100 µM worked out at 70% and the inhibition at 10 µM was 76%.

Consider `COc1cccc(/C=C/c2nc3c(c(=O)n(C)c(=O)n3C)n2C)c1OC` [Compound 26, (E)-8-(2,3-Dimethoxystyryl)caffeine], for which the MLD in the series with dd-strain male mice is recorded as greater than 300 mg/kg. Further, on A₂ receptor, the inhibition at 100 µM is 79%, the inhibition at 10 µM turned out to be 75%, the inhibition at 1 µM is 59% and the inhibition at 0.1 µM was 27%.

The compound `COc1ccc(/C=C/c2nc3c([nH]2)c(=O)n(C)c(=O)n3C)c(OC)c1` [Compound 27, (E)-8-(2,4-Dimethoxystyryl)theophylline] had an MLD with dd-strain male mice greater than 100 mg/kg. Also, on A₂ receptor, the inhibition at 100 µM came to 90% and the inhibition at 10 µM is 89%.

As to `COc1ccc(/C=C/c2nc3c(c(=O)n(C)c(=O)n3C)n2C)c(OC)c1` [Compound 28, (E)-8-(2,4-Dimethoxystyryl)caffeine], the MLD in the series with dd-strain male mice was greater than 300 mg/kg. On A₂ receptor, the inhibition at 100 µM came to 99%, the inhibition at 10 µM came out at 86%, the inhibition at 1 µM was 80% and the inhibition at 0.1 µM amounted to 46%.

For `COc1cc(C)c(/C=C/c2nc3c([nH]2)c(=O)n(C)c(=O)n3C)cc1C` [Compound 29, (E)-8-(4-Methoxy-2,5-dimethylstyryl)theophylline], in the series with dd-strain male mice, the MLD was greater than 100 mg/kg.

Compound `COc1cc(C)c(/C=C/c2nc3c(c(=O)n(C)c(=O)n3C)n2C)cc1C` [Compound 30, (E)-8-(4-Methoxy-2,5-dimethylstyryl)caffeine] displayed an MLD with dd-strain male mice greater than 100 mg/kg.

In turn, `CCn1c(=O)c2[nH]c(/C=C/c3cc(C)ccc3C)nc2n(CC)c1=O` [Compound 33, (E)-8-(2,5-Dimethylstyryl)-1,3-diethylxanthine] yielded an MLD in the series on dd-strain male mice greater than 300 mg/kg. Besides, at A₂ receptor, the inhibition at 100 µM was determined as 92% and the inhibition at 10 µM amounted to 93%.

Consider `CCOc1ccc(/C=C/c2nc3c([nH]2)c(=O)n(CC)c(=O)n3CC)cc1` [Compound 35, (E)-8-(4-Ethoxystyryl)-1,3-diethylxanthine], for which the MLD in the series on dd-strain male mice is recorded as greater than 100 mg/kg. On A₂ receptor, the inhibition at 1 µM came to 71% and the inhibition at 0.1 µM was 54%.

As for `CCCOc1ccc(/C=C/c2nc3c([nH]2)c(=O)n(CC)c(=O)n3CC)cc1` [Compound 37, (E)-1,3-Diethyl-8-(4-propoxystyryl)xanthine], the MLD in the series with dd-strain male mice is greater than 100 mg/kg. For the same compound, at A₂ receptor, the inhibition at 1 µM was found to be 60% and the inhibition at 0.1 µM stood at 56%.

As to `CCn1c(=O)c2[nH]c(/C=C/c3ccccc3OC)nc2n(CC)c1=O` [Compound 45, (E)-1,3-Diethyl-8-(2-methoxystyryl)xanthine], in the series on dd-strain male mice, the MLD is reported as greater than 100 mg/kg.

Take `CCn1c(=O)c2c(nc(/C=C/c3ccccc3OC)n2C)n(CC)c1=O` [Compound 46, (E)-1,3-Diethyl-8-(2-methoxystyryl)-7-methylxanthine]: in the series with dd-strain male mice, the MLD is greater than 100 mg/kg.

The compound `CCn1c(=O)c2[nH]c(/C=C/c3ccc(OC)c(OC)c3Cl)nc2n(CC)c1=O` [Compound 49, (E)-8-(2-Chloro-3,4-dimethoxystyryl)-1,3-diethylxanthine] had an MLD with dd-strain male mice greater than 100 mg/kg. For the same compound, on A₂ receptor, the inhibition at 100 µM was found to be 112%, the inhibition at 10 µM was 108%, the inhibition at 1 µM is 76% and the inhibition at 0.1 µM was found to be 73%.

Consider `COc1ccc(/C=C/c2nc3c([nH]2)c(=O)n(C)c(=O)n3C)c(Cl)c1OC` [Compound 51, (E)-8-(2-Chloro-3,4-dimethoxystyryl)theophylline], for which the MLD in the series with dd-strain male mice is recorded as greater than 100 mg/kg. At A₂ receptor, the inhibition at 100 µM came out at 91% and the inhibition at 10 µM worked out at 88%.

In the case of `CCn1c(=O)c2[nH]c(/C=C/c3ccc(F)c(F)c3)nc2n(CC)c1=O` [Compound 53, (E)-8-(3,4-Difluorostyryl)-1,3-diethylxanthine], in the series on dd-strain male mice, the MLD is greater than 300 mg/kg.

`COc1ccc(/C=C/c2nc3c([nH]2)c(=O)n(C)c(=O)n3C)cc1Br` [Compound 57, (E)-8-(3-Bromo-4-methoxystyryl)theophylline] showed an MLD with dd-strain male mice greater than 100 mg/kg.

In turn, `CCn1c(=O)c2[nH]c(/C=C/c3cc(OC)c(OC)cc3Br)nc2n(CC)c1=O` [Compound 59, (E)-8-(2-Bromo-4,5-dimethoxystyryl)-1,3-diethylxanthine] displayed an MLD with dd-strain male mice greater than 100 mg/kg.

In turn, `CCn1c(=O)c2[nH]c(/C=C/c3cc(OC)c(OC)cc3[N+](=O)[O-])nc2n(CC)c1=O` [Compound 61, (E)-8-(4,5-Dimethoxy-2-nitrostyryl)-1,3-diethylxanthine] registered an MLD in the series with dd-strain male mice greater than 100 mg/kg.

Compound `CCn1c(=O)c2c(nc(/C=C/c3cc(OC)c(OC)cc3[N+](=O)[O-])n2C)n(CC)c1=O` [Compound 62, (E)-8-(4,5-Dimethoxy-2-nitrostyryl)-1,3-diethyl-7-methylxanthine] returned an MLD with dd-strain male mice greater than 300 mg/kg.

For `CCn1c(=O)c2[nH]c(/C=C/c3cccc(Cl)c3)nc2n(CC)c1=O` [Compound 69, (E)-8-(3-Chlorostyryl)-1,3-diethylxanthine], the MLD in the series on dd-strain male mice is given as greater than 100 mg/kg.

Consider `CCn1c(=O)c2[nH]c(/C(C)=C/c3ccccc3)nc2n(CC)c1=O` [Compound 71, (E)-1,3-Diethyl-8-(α-methylstyryl)xanthine], for which the MLD in the series on dd-strain male mice is given as greater than 100 mg/kg.

Compound `CCn1c(=O)c2c(nc(/C(C)=C/c3ccccc3)n2C)n(CC)c1=O` [Compound 72, (E)-1,3-Diethyl-7-methyl-8-(α-methylstyryl)xanthine] returned an MLD with dd-strain male mice greater than 300 mg/kg.

As to `CCn1c(=O)c2[nH]c(/C=C/c3ccc(C(F)(F)F)cc3)nc2n(CC)c1=O` [Compound 73, (E)-1,3-Diethyl-8-(4-trifluoromethylstyryl)xanthine], the MLD in the series on dd-strain male mice is greater than 100 mg/kg.

Compound `CCn1c(=O)c2[nH]c(/C(F)=C\c3ccccc3)nc2n(CC)c1=O` [Compound 75, (E)-1,3-Diethyl-8-(α-fluorostyryl)xanthine] registered an MLD with dd-strain male mice greater than 100 mg/kg.

For `CCn1c(=O)c2[nH]c(/C=C/c3cc(C(F)(F)F)cc(C(F)(F)F)c3)nc2n(CC)c1=O` [Compound 85, (E)-8-[3,5-Bis(trifluoromethyl)styryl]-1,3-diethylxanthine], the MLD with dd-strain male mice is greater than 100 mg/kg.

`CCn1c(=O)c2c(nc(/C=C/c3cc(F)cc(F)c3)n2C)n(CC)c1=O` [Compound 88, (E)-8-(3,5-Difluorostyryl)-1,3-diethyl-7-methylxanthine]: the MLD in the series on dd-strain male mice was greater than 100 mg/kg.

Turning to `CCn1c(=O)c2[nH]c(/C=C/c3ccc(-c4ccccc4)cc3)nc2n(CC)c1=O` [Compound 100, (E)-1,3-Diethyl-8-(4-phenylstyryl)xanthine], the MLD in the series with dd-strain male mice is greater than 100 mg/kg.

The compound `CCn1c(=O)c2[nH]c(/C=C/c3ccc(F)c(Cl)c3)nc2n(CC)c1=O` [Compound 104, (E)-8-(3-Chloro-4-fluorostyryl)-1,3-diethylxanthine] returned an MLD with dd-strain male mice greater than 100 mg/kg.

Consider `CCn1c(=O)c2c(nc(/C=C/c3ccc(OC)c(O)c3)n2C)n(CC)c1=O` [Compound 111, (E)-1,3-Diethyl-8-(3-hydroxy-4-methoxystyryl)-7-methylxanthine], for which the MLD in the series on dd-strain male mice is on record as greater than 100 mg/kg.

On to `CCn1c(=O)c2c(nc(/C=C/c3ccc(OCCCCN)cc3)n2C)n(CC)c1=O` [Compound 116, (E)-8-[4-(4-Aminobutoxy)styryl]-1,3-diethyl-7-methylxanthine], for which, in the series with dd-strain male mice, the MLD is reported as greater than 100 mg/kg.

For `CCOC(=O)COc1ccc(/C=C/c2nc3c(c(=O)n(CC)c(=O)n3CC)n2C)cc1` [Compound 117, (E)-8-(4-Ethoxycarbonylmethoxystyryl)-1,3-diethyl-7-methylxanthine], the MLD with dd-strain male mice is greater than 100 mg/kg.

`CCn1c(=O)c2c(nc(/C=C/c3ccc(OCC(=O)O)cc3)n2C)n(CC)c1=O` [Compound 118, (E)-8-(4-Carboxymethoxystyryl)-1,3-diethyl-7-methylxanthine] showed an MLD with dd-strain male mice greater than 100 mg/kg.

On to `CCn1c(=O)c2[nH]c(/C=C/c3cccc(Oc4ccccc4)c3)nc2n(CC)c1=O` [Compound 119, (E)-1,3-Diethyl-8-(3-phenoxystyryl)xanthine], for which the MLD in the series on dd-strain male mice is reported as greater than 100 mg/kg.

Take `CCn1c(=O)c2[nH]c(/C=C/c3ccc(O)cc3)nc2n(CC)c1=O` [Compound 121, (E)-1,3-Diethyl-8-(4-hydroxystyryl)xanthine]: the MLD with dd-strain male mice is recorded as greater than 100 mg/kg.

Compound `CCn1c(=O)c2c(nc(/C=C/c3ccc(O)c(C)c3C)n2C)n(CC)c1=O` [Compound 122, (E)-1,3-Diethyl-8-(4-hydroxy-2,3-dimethylstyryl)-7-methylxanthine] displayed an MLD in the series with dd-strain male mice greater than 100 mg/kg.
